Like-named read-outs stand apart in the source and are kept apart here.
What was measured:
ATRA 4-hydroxylase = ATRA 4-hydroxylase (Mesocricetus auratus, UniProt A0A1U7QD41); assay: Hamster liver microsome assay of ATRA metabolism (ATRA 4-hydroxylase inhibition); assay type: biochemical; details: hamster liver microsomes
Protocol: Washed hamster liver microsomes were prepared as follows: Livers are removed from sacrificed animals, rinsed in ice-cold 0.9% NaCl solution and homogenized in a 3-fold volume of 0.25 M sucrose-0.05 M Tris-HCl (pH 7.4) using a blender. Microsomes are isolated by differential centrifugation (10,000×g, 20 minutes; 100,000×g, 60 minutes; 4° C.) using a well-known technique (Van Wauwe, J.; Van Nyen, G.; Coene, M-C.; Stoppie, P.; Cols, W.; Goossens, J, Borghgraef, P.; Janssen, P A J, Liarozole, an Inhibitor of Retinoic Acid Metabolism, Exerts Retinoid-Mimetic Effects, In Vivo. J. Pharmacol. Expt. Ther. 261, 773-779, 1992). The microsomes are suspended in PBS buffer (pH 7.4), in 1 ml aliquots and stored at −70° C. until required.
The standard reaction mixture (total of 400 μl) is composed of assay buffer, 140 μl; microsomes, 100 μl ([…]); NADPH, 100 μl ([…]); and a C-4 substituted ATRA analog dissolved in DMSO, 40 μl. After a 3 minute preincubation at 37° C., the reaction is initiated by addition of 20 μl of [11,12-^3H]-ATRA (20 μCi/ml). The incubation is carried out for 30 minutes under oxygen with shaking in a water bath at 37° C. The reaction is stopped by acidification with 0.1 ml formic acid, and the samples are extracted (×2) with EtOAc (2 ml) containing 0.05% butylated hydroxyanisole. The combined organic extracts are evaporated in vacuo, dissolved in 200 μl of the mobile phase for HPLC. An aliquot is analyzed for tritium content by liquid scintillation spectrometry. Usually, >95% of the added radioactivity is recovered. Most of the samples (150 μl) are analyzed on a 10 (m C18 Bondapak column (3.9×300 mm, Millipore), eluted with a multi-linear gradient solvent system: i, MeOH—H2O—HCOOH (60:40:0.05) containing 10 mM ammonium acetate (100 (0%) and ii, MeOH (0 (100%) at 2 ml/min. The radioactivity is measured by an on-line radio-detector. The Rts of ATRA, 4-hydroxy-ATRA and 4-oxo-ATRA are determined by UV absorbance at 350 nm in separate cuvettes. Typically, 80±5% of [11, 12-^3H]ATRA is converted into the metabolites.
The C-4 substituted ATRA analogs are tested at two concentrations, 500 and 1000 nM. IC50 and Ki values are determined.
Incubation of [11,12-^3]ATRA with hamster liver microsomes as described above results in the formation of polar metabolites, including 4-hydroxy-ATRA and 4-oxo-ATRA (see FIG. 7A). […] VN/14-1RA inhibits cytochrome P450-dependent metabolism of ATRA.
Table 2B represents repeated testing of some of the compounds in Table 2A and testing on additional compounds. For comparison, the IC50 values of liarozole and ketoconazole (known inhibitors of ATRA 4-hydroxylase) were also determined.

LNCaP cells = assay: LNCaP cell growth, compound in combination with ATRA; assay type: cell-based, human; details: for inhibition of proliferation of LNCaP cells: 10^−8 to 10^−5 M in combination with 10^−5 M ATRA, compared with no drug or ATRA only; for concentration(s) that prevent the LNCaP cells from increasing in number: in combination with 10^−5 M ATRA, tested 10^−8 to 10^−5 M
Protocol: LNCaP cells are androgen-dependent cell cultures. PC-3 cells are androgen independent cell culture.
LNCaP cells are transferred into ATRA-free medium 3 days prior to start of experiments. Medium consist of phenol red-free IMEM supplemented with 5% FBS and 1% P/S. Cell are then plated into 24-well culture plates (15000 cells per well) in 1 mL of same medium. After a 24-hour attachment period, the vehicle (ethanol) or ATRA (10^−5 M) alone or ATRA in combination with a novel compound at a range of concentrations are added to triplicate wells. Medium/treatments are changed every 3 days. After 9 days of treatment, cells are removed from the wells with typsin/EDTA and counted in a Coulter counter. Using well-known methods (Wouters W, Van Dun J, Dillen A, Coene M.-C, Cools W and De Coster R, Effects of liarozole, a new antitumoral compound an retinoic acid-induced inhibition of cell growth and on retinoic acid metabolism in MCF-7 breast cancer cells, Cancer Res 52: 2841-2846, 1992), one determines the inhibitory effect of the novel compounds on LNCaP cells grown with ATRA.

CYP19 (aromatase) = target: T1, CYP19 (aromatase) (Homo sapiens, UniProt P11511); assay: Selectivity: effect on CYP19 (aromatase); assay type: biochemical; details: concentration as high as 5 μM
T1 sequence (P11511 1-503): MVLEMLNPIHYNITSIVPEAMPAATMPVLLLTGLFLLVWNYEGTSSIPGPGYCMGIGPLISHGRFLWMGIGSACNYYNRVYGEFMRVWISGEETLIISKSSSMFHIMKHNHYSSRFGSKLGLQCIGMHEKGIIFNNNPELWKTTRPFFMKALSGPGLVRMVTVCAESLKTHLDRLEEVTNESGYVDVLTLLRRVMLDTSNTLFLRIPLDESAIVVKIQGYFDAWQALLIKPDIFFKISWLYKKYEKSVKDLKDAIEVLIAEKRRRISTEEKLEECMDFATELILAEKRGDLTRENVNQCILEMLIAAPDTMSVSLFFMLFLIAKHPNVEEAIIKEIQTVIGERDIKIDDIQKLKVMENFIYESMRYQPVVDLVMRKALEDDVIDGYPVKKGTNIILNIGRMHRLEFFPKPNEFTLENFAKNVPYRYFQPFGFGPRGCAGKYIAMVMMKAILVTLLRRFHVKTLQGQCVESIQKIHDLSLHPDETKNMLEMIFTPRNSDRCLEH
Protocol: (§1) The selectivity of the compounds of the present invention towards ATRA-4-hydroxylase was tested by measuring the effect on the key enzymes in the biosynthesis of estradiol and dehydroepiandrosterone, CYP19 (aromatase) and CYP17 (17-lyase), respectively.

CYP17 (17-lyase) = target: T2, CYP17 (17-lyase) (Homo sapiens, UniProt P05093); assay: Selectivity: effect on CYP17 (17-lyase); assay type: biochemical; details: concentration as high as 5 μM
T2 sequence (P05093 1-508): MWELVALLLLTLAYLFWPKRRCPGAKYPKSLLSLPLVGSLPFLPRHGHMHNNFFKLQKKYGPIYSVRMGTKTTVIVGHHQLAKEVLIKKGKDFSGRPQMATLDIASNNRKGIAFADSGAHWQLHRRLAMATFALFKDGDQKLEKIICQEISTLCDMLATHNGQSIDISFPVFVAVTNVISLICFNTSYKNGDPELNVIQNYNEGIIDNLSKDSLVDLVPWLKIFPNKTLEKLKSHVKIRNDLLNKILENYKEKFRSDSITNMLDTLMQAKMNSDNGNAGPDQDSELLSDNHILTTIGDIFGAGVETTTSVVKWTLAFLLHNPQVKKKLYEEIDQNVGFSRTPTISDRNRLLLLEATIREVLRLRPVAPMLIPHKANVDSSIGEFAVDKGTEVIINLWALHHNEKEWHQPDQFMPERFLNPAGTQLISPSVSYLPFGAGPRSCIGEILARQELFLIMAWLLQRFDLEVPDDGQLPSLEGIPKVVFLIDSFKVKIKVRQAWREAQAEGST
Protocol: as §1

[1] = Pharmacokinetic studies in mice (plasma levels by HPLC); assay type: in vivo; details: mice, 10 mg/kg s.c.
Protocol: FIG. 18: Plasma Levels in Balb/c Mice Following Dose of 10 mg/kg body weight Given s/c.
Pharmacokinetic studies of VN/65-4 and VN/66-1 were measured in mice and were compared to VN/14-1 and VN/50A-1. Mice were dosed s.c. at 10 mg/kg using a vehicle, 45% β-cyclodextrin in water, and plasma levels were measured by HPLC. […] The results are summarized in Table 3 below and the profiles in FIG. 18.

[2] = Effect of VN/65-4 on plasma elimination of ATRA; assay type: in vivo; details: mice, VN/65-4 10 mg/kg s.c. one hour before ATRA 1.0 mg/kg s.c.
Protocol: FIG. 19: Plasma Concentration of ATRA (1 mg/kg) After a Dose of 10 mg/kg body weight of VN/65-4.
To determine the ability of VN/65-4 to delay the velocity of plasma elimination of ATRA, mice were treated s.c. with VN/65-4 (10 mg/kg). One hour later, the mice were administered s.c. ATRA (1.0 mg/kg) and sacrificed at various time points. […] From these experiments it is believed that it is possible to improve ATRA efficacy by reducing its enhanced metabolism to increase endogenous levels.

PC-3 tumors = assay: Growth of PC-3 tumors in male nude mice; assay type: in vivo; details: PC-3 xenografts
Protocol: FIG. 20: Effect of ATRA and VN/50A-1 on PC 3 Tumor Volumes in Male Nude Mice
The effects of VN/50A-1 on tumor growth was determined in mouse xenografts and compared to ATRA as the reference treatment (FIG. 20). Mice were grouped 35 days after cell inoculation when measurable tumor volume was approximately 500 mm^3. Total tumor volume in the control mice increased 5.4-fold over 7 weeks and tumor volume in the mice treated with ATRA increased by 3.2-fold (41% reduction compared with control). In the mice treated with VN/50A-1, tumor volume increased by 3.5-fold, which was 38% reduction versus control mice, which correlated well with accumulation of ATRA in plasma and in tumors. […] VN/50A-1 is completely eliminated from plasma within 3 hour of administration to mice (see FIG. 18). The inventive compounds with longer half-lives will have favorable bioavailability and are expected to be more efficacious.

[3] = test system: ATRA 4-hydroxylase activity in LNCaP cells; assay: Induction of ATRA metabolism in LNCaP cells; assay type: cell-based, human; details: LNCaP cells preincubated with 1.0 μM ATRA, 0.8 μM [3H]ATRA
Protocol: FIG. 17: Metabolism of 0.8 μM 3H-ATRA Following Induction with 1 μM ATRA in LNCaP Cells.
The potential of these cell lines to metabolize ATRA was investigated. […] LNCaP cells were preincubated with 1.0 μM ATRA for different time periods up to 48 hour. Following preincubation, ATRA metabolism was determined using 0.8 μM [11,12-^3H]ATRA. Induction of 4-hydroxylase activity ([^3H]ATRA metabolism was time-dependent with a fast onset and maximal induction achieved after a preincubation period of 18 hour (FIG. 17).

[4] = Table 2A, initial testing, read-out: IC50 Value
[5] = Table 2B, repeated testing and additional compounds, read-out: IC50 Value, Inhibition of ATRA 4-Hydroxylase

ATRA 4-hydroxylase, sequence (A0A1U7QD41 entry or part of it): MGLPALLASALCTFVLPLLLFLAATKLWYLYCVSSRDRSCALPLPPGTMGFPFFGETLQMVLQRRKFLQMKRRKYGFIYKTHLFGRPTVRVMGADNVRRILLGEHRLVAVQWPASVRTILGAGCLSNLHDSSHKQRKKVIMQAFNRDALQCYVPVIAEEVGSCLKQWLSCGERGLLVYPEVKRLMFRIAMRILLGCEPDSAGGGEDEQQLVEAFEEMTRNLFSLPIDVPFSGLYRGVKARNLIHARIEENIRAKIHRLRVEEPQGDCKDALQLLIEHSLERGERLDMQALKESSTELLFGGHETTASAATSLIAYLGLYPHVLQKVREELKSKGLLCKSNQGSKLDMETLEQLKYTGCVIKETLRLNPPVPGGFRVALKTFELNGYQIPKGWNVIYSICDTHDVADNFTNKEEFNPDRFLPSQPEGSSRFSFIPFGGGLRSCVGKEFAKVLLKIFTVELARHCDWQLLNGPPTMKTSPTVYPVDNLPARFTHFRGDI

## CC1=C(/C=C/C(C)=C/C=C/C(C)=C/C(=O)O)C(C)(C)CCC1n1cncn1 (racemic) [VN/16-1, (±)-4-(1H-1,2,4-triazol-1-yl)retinoic acid]
ATRA 4-hydroxylase; [4]
  IC50: 0.88 ± 0.008 µM
ATRA 4-hydroxylase; [5]
  IC50: 0.005 ± 0.00025 µM
LNCaP cells
  inhibition of proliferation of LNCaP cells: inhibit the proliferation of LNCaP cells better than no drug or ATRA only
  concentration(s) that prevent the LNCaP cells from increasing in number: 10^−5 M

## COC(=O)C=C(C)C=CC=C(C)C=CC1=C(C)C(n2ccnc2)CCC1(C)C (mixture of isomers) [VN/65-4, (±)-4-(1H-imidazol-1-yl)-13-cis-methylretinoate]
CYP19 (aromatase)
  inhibition of CYP19 (aromatase): barely inhibited
CYP17 (17-lyase)
  inhibition of CYP17 (17-lyase): barely inhibited
[1]
  in vivo conversion to corresponding acid: rapidly and completely converted to corresponding acid
[2]
  rate of plasma elimination of ATRA: delayed the rate of ATRA elimination significantly

## CC1=C(/C=C/C(C)=C/C=C/C(C)=C/C(=O)O)C(C)(C)CCC1 [ATRA, All-trans retinoic acid, reference compound]
PC-3 tumors
  tumor weights versus control mice: significantly (P<0.05) lower
PC-3 tumors; over 7 weeks
  reduction of tumor volume compared with control: 41%
PC-3 tumors; over 7 weeks, control 5.4-fold
  increase of total tumor volume: 3.2 fold
[3]
  preincubation period for maximal induction of 4-hydroxylase activity: 18 h

## CC1=C(/C=C/C(C)=C/C=C/C(C)=C/C(=O)O)C(C)(C)CCC1n1cnnc1 (racemic) [VN/17-1]
ATRA 4-hydroxylase; [4]
  IC50: 1.62 µM
ATRA 4-hydroxylase; [5]
  IC50: 0.025 ± 0.0005 µM
LNCaP cells
  inhibition of proliferation of LNCaP cells: inhibit the proliferation of LNCaP cells better than no drug or ATRA only
  concentration(s) that prevent the LNCaP cells from increasing in number: All concentrations

## COC(=O)C=C(C)C=CC=C(C)C=CC1=C(C)C(n2cncn2)CCC1(C)C (racemic) [VN/13-1, (±)-4-(1H-1,2,4-triazol-1-yl)methyl retinoate]
ATRA 4-hydroxylase; [4]
  IC50: 0.68 ± 0.003 µM
ATRA 4-hydroxylase; [5]
  IC50: 0.001 ± 5e-05 µM

## COC(=O)C=C(C)C=CC=C(C)C=CC1=C(C)C(n2cnnc2)CCC1(C)C (racemic) [VN/13-2, (±)-4-(4H-1,2,4-triazole-1-yl)methyl retinoate]
ATRA 4-hydroxylase; [5]
  IC50: 0.01 ± 0.0003 µM

## Clc1cccc(C(c2ccc3[nH]cnc3c2)n2ccnc2)c1 (stereo not drawn) [Liarozole, reference compound]
LNCaP cells
  inhibition of proliferation of LNCaP cells: inhibit the proliferation of LNCaP cells better than no drug or ATRA only
  concentration(s) that prevent the LNCaP cells from increasing in number: 10^−5 M

From patent publication US20120122908A1, “Novel C-4 Substituted Retinoids” (University of Maryland, priority 2000, published 2012)
